Data as given in publication PMC11124822, “Discovery and Anticancer Screening of Novel Oxindole-Based Derivative Bearing Pyridyl Group as Potent and Selective Dual FLT3/CDK2 Kinase Inhibitor” (Pharmaceuticals, 2024).
Where two headings read alike, the source gives them in different places.

Columns and labels:
Assay in all cases: NCI-60 antiproliferative screen (SRB)
Format in all cases: cell-based, human
HL-60(TB) = settings: 48 h
HS 578T = settings: 48 h
SNB-19 = settings: 48 h
SK-MEL-5 = tested on: SK-MEL-5
MDA-MB-435 = settings: 48 h
786-0 = settings: 48 h
HOP-92 = settings: 48 h
SK-OV-3 = settings: 48 h
HCT-15 = settings: 48 h
CCRF-CEM = settings: 48 h
EKVX = settings: 48 h
NCI-H460 = settings: 48 h
T-47D = settings: 48 h
SF-268 = settings: 48 h
HT29 = settings: 48 h
UACC-62 = settings: Homo sapiens; 10 µM single dose, 48 h; UACC-62 (Melanoma); read-out: Growth inhibition (%)

With O=C1Nc2cc(Cl)ccc2C1=Cc1ccc(OCc2cccnc2)cc1 (mixture of isomers) [Compound 5l, (E/Z)-6-Chloro-3-[4-(pyridin-3-ylmethoxy)benzylidene] indolin-2-one] as the compound, how does the GI50 (HL-60(TB); Homo sapiens, HL-60, five-dose, HL60(TB)) read?
Its GI50 is 4.08 µM.

What about the CC50 (HL-60(TB); Homo sapiens, HL-60, five-dose, HL60(TB), read-out: LC50 (the source's name)) of the same compound?
Its CC50 is > 100 µM.

And the inhibition at 10 µM (HL-60(TB); Homo sapiens, 10 µM single dose, HL-60(TB) (Leukemia), read-out: Growth inhibition (%))?
Its inhibition at 10 µM is 95.5%.

What about the TGI (HL-60(TB); five-dose, HL60(TB)) of the same compound?
The TGI was >100 µM.

And the inhibition at 10 µM (HS 578T; Homo sapiens, 10 µM single dose, HS 578T (Breast), read-out: Growth inhibition (%))?
The inhibition at 10 µM was 62.7%.

What about the GI50 (HS 578T; Homo sapiens, five-dose, HS 578T) of the same compound?
The GI50 was 12.8 µM.

And the CC50 (HS 578T; Homo sapiens, five-dose, HS 578T, read-out: LC50 (the source's name))?
The CC50 was > 100 µM.

What about the TGI (HS 578T; five-dose, HS 578T) of the same compound?
The TGI was 98.10 µM.

And the inhibition at 10 µM (SNB-19; Homo sapiens, 10 µM single dose, SNB-19 (CNS), read-out: Growth inhibition (%))?
Its inhibition at 10 µM is 56.2%.

What about the GI50 (SNB-19; Homo sapiens, five-dose, SNB-19) of the same compound?
The GI50 was 12.4 µM.

What about the TGI (SNB-19; five-dose, SNB-19) of the same compound?
The TGI was >100 µM.

And the CC50 (SK-MEL-5; Homo sapiens, SK-MEL-5, 48 h, five-dose, SK-MEL-5, read-out: LC50 (the source's name))?
The CC50 was 65.6 µM.

And the inhibition at 10 µM (SK-MEL-5; Homo sapiens, 10 µM single dose, 48 h, SK-MEL-5 (Melanoma), read-out: Growth inhibition (%))?
The inhibition at 10 µM was 153%.

What about the GI50 (SK-MEL-5; Homo sapiens, five-dose, 48 h, SK-MEL-5) of the same compound?
The GI50 was 3.46 µM.

And the CC50 (SK-MEL-5; five-dose, 48 h, SK-MEL-5, read-out: LC50 (the source's name))?
Its CC50 is 71.5 µM.

What about the inhibition at 10 µM (MDA-MB-435; Homo sapiens, 10 µM single dose, MDA-MB-435 (Melanoma), read-out: Growth inhibition (%)) of the same compound?
Its inhibition at 10 µM is 121%.

What about the GI50 (MDA-MB-435; Homo sapiens, five-dose, MDA-MB-435) of the same compound?
Its GI50 is 4.44 µM.

What about the TGI (MDA-MB-435; five-dose, MDA-MB-435) of the same compound?
Its TGI is 76.90 µM.

What about the inhibition at 10 µM (786-0; Homo sapiens, 10 µM single dose, 786-0 (Renal), read-out: Growth inhibition (%)) of the same compound?
Its inhibition at 10 µM is 47.2%.

What about the GI50 (786-0; Homo sapiens, five-dose, 786-0) of the same compound?
Its GI50 is 26.6 µM.

And the CC50 (786-0; Homo sapiens, five-dose, 786-0, read-out: LC50 (the source's name))?
The CC50 was > 100 µM.

And the TGI (786-0; five-dose, 786-0)?
Its TGI is >100 µM.

And the inhibition at 10 µM (HOP-92; Homo sapiens, 10 µM single dose, HOP-92 (NSCLC), read-out: Growth inhibition (%))?
Its inhibition at 10 µM is 56.1%.

What about the GI50 (HOP-92; Homo sapiens, five-dose, HOP-92) of the same compound?
The GI50 was 6.51 µM.

What about the TGI (HOP-92; five-dose, HOP-92) of the same compound?
Its TGI is 62.70 µM.

What about the inhibition at 10 µM (SK-OV-3; Homo sapiens, 10 µM single dose, SK-OV-3 (Ovarian), read-out: Growth inhibition (%)) of the same compound?
Its inhibition at 10 µM is 32.2%.

And the GI50 (SK-OV-3; Homo sapiens, five-dose, SK-OV-3)?
Its GI50 is 71.8 µM.

What about the CC50 (SK-OV-3; Homo sapiens, five-dose, SK-OV-3, read-out: LC50 (the source's name)) of the same compound?
Its CC50 is > 100 µM.

What about the TGI (SK-OV-3; five-dose, SK-OV-3) of the same compound?
The TGI was >100 µM.

What about the inhibition at 10 µM (HCT-15; Homo sapiens, 10 µM single dose, HCT-15 (Colon), read-out: Growth inhibition (%)) of the same compound?
Its inhibition at 10 µM is 97.2%.

What about the GI50 (HCT-15; Homo sapiens, five-dose, HCT-15) of the same compound?
Its GI50 is 3.46 µM.

What about the TGI (HCT-15; five-dose, HCT-15) of the same compound?
Its TGI is 25.20 µM.

What about the inhibition at 10 µM (CCRF-CEM; Homo sapiens, 10 µM single dose, CCRF-CEM (Leukemia), read-out: Growth inhibition (%)) of the same compound?
The inhibition at 10 µM was 83.9%.

What about the GI50 (CCRF-CEM; Homo sapiens, five-dose, CCRF-CEM) of the same compound?
Its GI50 is 3.72 µM.

And the TGI (CCRF-CEM; five-dose, CCRF-CEM)?
Its TGI is >100 µM.

And the inhibition at 10 µM (EKVX; Homo sapiens, 10 µM single dose, EKVX (NSCLC), read-out: Growth inhibition (%))?
Its inhibition at 10 µM is 60.9%.

And the GI50 (EKVX; Homo sapiens, five-dose, EKVX)?
The GI50 was 6.02 µM.

And the TGI (EKVX; five-dose, EKVX)?
Its TGI is >100 µM.

What about the inhibition at 10 µM (NCI-H460; Homo sapiens, 10 µM single dose, NCI-H460 (NSCLC), read-out: Growth inhibition (%)) of the same compound?
The inhibition at 10 µM was 77.7%.

What about the GI50 (NCI-H460; Homo sapiens, five-dose, NCI-H460) of the same compound?
Its GI50 is 14 µM.

What about the CC50 (NCI-H460; Homo sapiens, five-dose, NCI-H460, read-out: LC50 (the source's name)) of the same compound?
Its CC50 is > 100 µM.

What about the TGI (NCI-H460; five-dose, NCI-H460) of the same compound?
Its TGI is >100 µM.

What about the inhibition at 10 µM (T-47D; Homo sapiens, T47D, 10 µM single dose, T-47D (Breast), read-out: Growth inhibition (%)) of the same compound?
The inhibition at 10 µM was 69%.

And the GI50 (T-47D; Homo sapiens, T47D, five-dose, T-47D)?
The GI50 was 3.18 µM.

And the CC50 (T-47D; Homo sapiens, T47D, five-dose, T-47D, read-out: LC50 (the source's name))?
The CC50 was > 100 µM.

And the TGI (T-47D; five-dose, T-47D)?
Its TGI is >100 µM.

What about the inhibition at 10 µM (SF-268; Homo sapiens, 10 µM single dose, SF-268 (CNS), read-out: Growth inhibition (%)) of the same compound?
The inhibition at 10 µM was 45.4%.

And the GI50 (SF-268; Homo sapiens, five-dose, SF-268)?
The GI50 was 10.8 µM.

What about the CC50 (SF-268; Homo sapiens, five-dose, SF-268, read-out: LC50 (the source's name)) of the same compound?
The CC50 was > 100 µM.

What about the TGI (SF-268; five-dose, SF-268) of the same compound?
The TGI was 88.10 µM.

What about the inhibition at 10 µM (HT29; Homo sapiens, HT-29, 10 µM single dose, HT29 (Colon), read-out: Growth inhibition (%)) of the same compound?
Its inhibition at 10 µM is 90.3%.

What about the GI50 (HT29; Homo sapiens, HT-29, five-dose, HT29) of the same compound?
Its GI50 is 6.45 µM.

What about the CC50 (HT29; Homo sapiens, HT-29, five-dose, HT29, read-out: LC50 (the source's name)) of the same compound?
Its CC50 is > 100 µM.

And the TGI (HT29; five-dose, HT29)?
Its TGI is 37.80 µM.

What about the inhibition at 10 µM (UACC-62) of the same compound?
Its inhibition at 10 µM is 64.3%.
